Assay results reported in PubChem BioAssay AID1918936 (Molecular Pharmacology Branch, DTP, NCI, 2023).
Several values for one entry are separate records, joined by “and”; a condition that tells them apart may be missing. Equal entries are not always repeated. Each block holds one compound with its values, some of them ahead of it.

System: 349418-098-R-PDC complex spheroid viability
Assay: Anticancer human tumor 349418-098-R-PDC patient-derived lung adenocarcinoma cell line growth inhibition
Settings: for viability, T/C: stronger effect = lower value
How it was run: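 Drug combinations with the LSD1 inhibitor iadademstat tested on tumor cells co-cultured as spheroids with endothelial cells and mesenchymal stem cells. Concentrations descended in half-log increments from clinical Cmax or 10 microM.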

[1] = curve of first compound, second compound 0.1 µM
[2] = curve of first compound, second compound 0.316 µM
[3] = curve of first compound, second compound 1 µM
[4] = curve of first compound, second compound 3.16 µM
[5] = curve of first compound, second compound 10 µM
[6] = second compound 0.1 µM, first compound 0.000949 µM
[7] = second compound 0.1 µM, first compound 0.003 µM
[8] = second compound 0.1 µM, first compound 0.00949 µM
[9] = second compound 0.1 µM, first compound 0.03 µM
[10] = second compound 0.1 µM, first compound 0.0949 µM
[11] = second compound 0.1 µM, first compound 0.3 µM
[12] = second compound 0.316 µM, first compound 0.000949 µM
[13] = second compound 0.316 µM, first compound 0.003 µM
[14] = second compound 0.316 µM, first compound 0.00949 µM
[15] = second compound 0.316 µM, first compound 0.03 µM
[16] = second compound 0.316 µM, first compound 0.0949 µM
[17] = second compound 0.316 µM, first compound 0.3 µM
[18] = second compound 1 µM, first compound 0.000949 µM
[19] = second compound 1 µM, first compound 0.003 µM
[20] = second compound 1 µM, first compound 0.00949 µM
[21] = second compound 1 µM, first compound 0.03 µM
[22] = second compound 1 µM, first compound 0.0949 µM
[23] = second compound 1 µM, first compound 0.3 µM
[24] = second compound 3.16 µM, first compound 0.000949 µM
[25] = second compound 3.16 µM, first compound 0.003 µM
[26] = second compound 3.16 µM, first compound 0.00949 µM
[27] = second compound 3.16 µM, first compound 0.03 µM
[28] = second compound 3.16 µM, first compound 0.0949 µM
[29] = second compound 3.16 µM, first compound 0.3 µM
[30] = second compound 10 µM, first compound 0.000949 µM
[31] = second compound 10 µM, first compound 0.003 µM
[32] = second compound 10 µM, first compound 0.00949 µM
[33] = second compound 10 µM, first compound 0.03 µM
[34] = second compound 10 µM, first compound 0.0949 µM
[35] = second compound 10 µM, first compound 0.3 µM
[36] = second compound 0.1 µM, first compound 0.0316 µM
[37] = second compound 0.1 µM, first compound 0.1 µM
[38] = second compound 0.1 µM, first compound 0.316 µM
[39] = second compound 0.1 µM, first compound 1 µM
[40] = second compound 0.316 µM, first compound 0.0316 µM
[41] = second compound 0.316 µM, first compound 0.1 µM
[42] = second compound 0.316 µM, first compound 0.316 µM
[43] = second compound 0.316 µM, first compound 1 µM
[44] = second compound 1 µM, first compound 0.0316 µM
[45] = second compound 1 µM, first compound 0.1 µM
[46] = second compound 1 µM, first compound 0.316 µM
[47] = second compound 1 µM, first compound 1 µM
[48] = second compound 3.16 µM, first compound 0.0316 µM
[49] = second compound 3.16 µM, first compound 0.1 µM
[50] = second compound 3.16 µM, first compound 0.316 µM
[51] = second compound 3.16 µM, first compound 1 µM
[52] = second compound 10 µM, first compound 0.0316 µM
[53] = second compound 10 µM, first compound 0.1 µM
[54] = second compound 10 µM, first compound 0.316 µM
[55] = second compound 10 µM, first compound 1 µM
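Also: spheroids exposed to agents for seven days before readout.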
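For viability, T/C in this document: 100% = DMSO vehicle control wells.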

Compound: CCc1c2c(nc3ccc(O)cc13)-c1cc3c(c(=O)n1C2)COC(=O)[C@]3(O)CC + NC1CCC(NC2CC2c2ccccc2)CC1
IC50 [1]: < 0.949 nM | IC50 [2]: < 0.949 nM | IC50 [3]: < 0.949 nM | IC50 [4]: < 0.949 nM | IC50 [5]: < 0.949 nM | viability, T/C [6]: 4.09% | viability, T/C [7]: 2.43% | viability, T/C [8]: 2.12% | viability, T/C [9]: 1.2% | viability, T/C [10]: 1.37% | viability, T/C [11]: 1.52% | viability, T/C [12]: 3.85% | viability, T/C [13]: 2.61% | viability, T/C [14]: 2.07% | viability, T/C [15]: 1.29% | viability, T/C [16]: 1.05% | viability, T/C [17]: 1.44% | viability, T/C [18]: 4.08% | viability, T/C [19]: 2.65% | viability, T/C [20]: 1.89% | viability, T/C [21]: 1.41% | viability, T/C [22]: 1.14% | viability, T/C [23]: 1.59% | viability, T/C [24]: 3.68% | viability, T/C [25]: 2.54% | viability, T/C [26]: 1.99% | viability, T/C [27]: 1.37% | viability, T/C [28]: 1.05% | viability, T/C [29]: 1.61% | viability, T/C [30]: 3.85% | viability, T/C [31]: 2.63% | viability, T/C [32]: 2.13% | viability, T/C [33]: 1.59% | viability, T/C [34]: 1.21% | viability, T/C [35]: 1.47%

Compound: CC1(C)CCC(CN2CCN(c3ccc(C(=O)NS(=O)(=O)c4ccc(NCC5CCOCC5)c([N+](=O)[O-])c4)c(Oc4cnc5[nH]ccc5c4)c3)CC2)=C(c2ccc(Cl)cc2)C1 + NC1CCC(NC2CC2c2ccccc2)CC1
IC50 [1]: 4250 nM | IC50 [2]: 4540 nM | IC50 [3]: 4300 nM | IC50 [4]: 4550 nM | IC50 [5]: 4240 nM | viability, T/C [36]: 110% | viability, T/C [37]: 110% | viability, T/C [38]: 99.3% | viability, T/C [39]: 96.3% | viability, T/C (second compound 0.1 µM, first compound 3.16 µM): 62.5% | viability, T/C (second compound 0.1 µM, first compound 10 µM): 11.8% | viability, T/C [40]: 115% | viability, T/C [41]: 105% | viability, T/C [42]: 103% | viability, T/C [43]: 103% | viability, T/C (second compound 0.316 µM, first compound 3.16 µM): 67.9% | viability, T/C (second compound 0.316 µM, first compound 10 µM): 11.7% | viability, T/C [44]: 108% | viability, T/C [45]: 111% | viability, T/C [46]: 105% | viability, T/C [47]: 96.1% | viability, T/C (second compound 1 µM, first compound 3.16 µM): 64.4% | viability, T/C (second compound 1 µM, first compound 10 µM): 10.4% | viability, T/C [48]: 103% | viability, T/C [49]: 101% | viability, T/C [50]: 104% | viability, T/C [51]: 94.1% | viability, T/C (second compound 3.16 µM, first compound 3.16 µM): 67.7% | viability, T/C (second compound 3.16 µM, first compound 10 µM): 12% | viability, T/C [52]: 62.9% | viability, T/C [53]: 81.2% | viability, T/C [54]: 91% | viability, T/C [55]: 87.4% | viability, T/C (second compound 10 µM, first compound 3.16 µM): 63% | viability, T/C (second compound 10 µM, first compound 10 µM): 11.9%

IC50 (curve of compound): 368 nM and 977 nM
Compound: CC1COCCN1c1cc(C2(S(C)(=N)=O)CC2)nc(-c2ccnc3[nH]ccc23)n1 (centres undefined)
viability, T/C (compound 0.0316 µM): 106% and 107% | viability, T/C (compound 0.1 µM): 91.2% and 108% | viability, T/C (compound 0.316 µM): 57% and 96.7% | viability, T/C (compound 1 µM): 14.8% and 49.8% | viability, T/C (compound 3.16 µM): 10.1% and 11.9% | viability, T/C (compound 10 µM): 10.6% and 11.5%

Compound: Nc1ccn(C2OC(CO)C(O)C2(F)F)c(=O)n1 (centres undefined) + NC1CC1c1ccc(-c2cccc(O)c2)cc1
IC50 [1]: < 0.949 nM | IC50 [2]: < 0.949 nM | IC50 [3]: < 0.949 nM | IC50 [4]: < 0.949 nM | IC50 [5]: < 0.949 nM | viability, T/C [6]: 13.3% | viability, T/C [7]: 4.68% | viability, T/C [8]: 4.34% | viability, T/C [9]: 4.35% | viability, T/C [10]: 3.93% | viability, T/C [11]: 4.06% | viability, T/C [12]: 14.1% | viability, T/C [13]: 3.77% | viability, T/C [14]: 3.96% | viability, T/C [15]: 3.75% | viability, T/C [16]: 3.4% | viability, T/C [17]: 3.31% | viability, T/C [18]: 15.9% | viability, T/C [19]: 4.07% | viability, T/C [20]: 4.17% | viability, T/C [21]: 3.99% | viability, T/C [22]: 3.7% | viability, T/C [23]: 3.81% | viability, T/C [24]: 18.6% | viability, T/C [25]: 4.9% | viability, T/C [26]: 4.67% | viability, T/C [27]: 4.52% | viability, T/C [28]: 3.81% | viability, T/C [29]: 3.95% | viability, T/C [30]: 17.2% | viability, T/C [31]: 4.98% | viability, T/C [32]: 5.12% | viability, T/C [33]: 4.52% | viability, T/C [34]: 4.65% | viability, T/C [35]: 4.28%

IC50 (curve of compound): > 3000 nM and 343 nM
Compound: CCN(c1cc(-c2ccc(CN3CCOCC3)cc2)cc(C(=O)NCc2c(C)cc(C)[nH]c2=O)c1C)C1CCOCC1
viability, T/C (compound 0.00949 µM): 91.2% and 96.2% | viability, T/C (compound 0.03 µM): 100% and 97.8% | viability, T/C (compound 0.0949 µM): 93.4% and 87.5% | viability, T/C (compound 0.3 µM): 91.6% and 50.8% | viability, T/C (compound 0.949 µM): 76.7% and 26.2% | viability, T/C (compound 3 µM): 68.7% and 10%

Compound: O=C(C=Cn1cnc(-c2cc(C(F)(F)F)cc(C(F)(F)F)c2)n1)NNc1cnccn1 + NC1CC1c1ccc(-c2cccc(O)c2)cc1
IC50 [1]: < 3.16 nM | IC50 [2]: < 3.16 nM | IC50 [3]: < 3.16 nM | IC50 [4]: < 3.16 nM | IC50 [5]: < 3.16 nM | viability, T/C (second compound 0.1 µM, first compound 0.00316 µM): 21.7% | viability, T/C (second compound 0.1 µM, first compound 0.01 µM): 13.6% | viability, T/C [36]: 8.69% | viability, T/C [37]: 4.58% | viability, T/C [38]: 3.21% | viability, T/C [39]: 2.82% | viability, T/C (second compound 0.316 µM, first compound 0.00316 µM): 23% | viability, T/C (second compound 0.316 µM, first compound 0.01 µM): 13.6% | viability, T/C [40]: 7.36% | viability, T/C [41]: 4.45% | viability, T/C [42]: 3.04% | viability, T/C [43]: 2.89% | viability, T/C (second compound 1 µM, first compound 0.00316 µM): 21.3% | viability, T/C (second compound 1 µM, first compound 0.01 µM): 11.7% | viability, T/C [44]: 7.13% | viability, T/C [45]: 3.94% | viability, T/C [46]: 2.88% | viability, T/C [47]: 2.59% | viability, T/C (second compound 3.16 µM, first compound 0.00316 µM): 22.3% | viability, T/C (second compound 3.16 µM, first compound 0.01 µM): 16.3% | viability, T/C [48]: 7.41% | viability, T/C [49]: 5% | viability, T/C [50]: 3.23% | viability, T/C [51]: 2.75% | viability, T/C (second compound 10 µM, first compound 0.00316 µM): 11.5% | viability, T/C (second compound 10 µM, first compound 0.01 µM): 11.2% | viability, T/C [52]: 7.71% | viability, T/C [53]: 5.06% | viability, T/C [54]: 2.95% | viability, T/C [55]: 2.62%
